This is an account of results in publication PMC12209699, “Waxy‐ or Putty‐Like Materials as a Novel Drug Preparation for Synthetic Cannabinoid Receptor Agonists: Detection in Prisons and In Vitro Cannabinoid Receptor Activity” (Drug Testing and Analysis, 2024).

Where two headings read alike, the source gives them in different places.

The subject of assay [1] is CB1. The note with it: ref [4], [60], cited from earlier work; for EC50: earlier in vitro data, read-out: EC 50 at CB1; for E max at CB1: normalized to CP55,940.
In assay [2] the target is CB1 receptor (Homo sapiens, UniProt P21554). Put plainly: NanoBiT βarr2 recruitment bioassay at CB1 (HEK 293T cells stably expressing CB1‐βarr2). Conditions: for E max at CB1: normalized to E max of CP55,940 (set at 100%).
The target in assay [3] is CB2 receptor (Homo sapiens, UniProt P34972). Put plainly: NanoBiT βarr2 recruitment bioassay at CB2 (HEK 293T cells stably expressing CB2‐βarr2). The note with it: for E max at CB2: normalized to E max of CP55,940 (set at 100%).
CB2 receptor, sequence (P34972 whole entry): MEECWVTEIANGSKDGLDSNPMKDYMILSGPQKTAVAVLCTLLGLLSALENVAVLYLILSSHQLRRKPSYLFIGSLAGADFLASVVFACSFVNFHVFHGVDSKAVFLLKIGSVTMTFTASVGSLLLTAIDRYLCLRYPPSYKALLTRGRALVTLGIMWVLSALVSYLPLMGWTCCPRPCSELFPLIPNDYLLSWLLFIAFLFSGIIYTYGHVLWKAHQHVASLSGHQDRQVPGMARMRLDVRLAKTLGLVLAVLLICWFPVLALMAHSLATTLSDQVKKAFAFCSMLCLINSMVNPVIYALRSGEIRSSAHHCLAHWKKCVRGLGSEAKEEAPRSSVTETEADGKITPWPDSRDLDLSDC
CB2 receptor, sequence (P32121 whole entry partner): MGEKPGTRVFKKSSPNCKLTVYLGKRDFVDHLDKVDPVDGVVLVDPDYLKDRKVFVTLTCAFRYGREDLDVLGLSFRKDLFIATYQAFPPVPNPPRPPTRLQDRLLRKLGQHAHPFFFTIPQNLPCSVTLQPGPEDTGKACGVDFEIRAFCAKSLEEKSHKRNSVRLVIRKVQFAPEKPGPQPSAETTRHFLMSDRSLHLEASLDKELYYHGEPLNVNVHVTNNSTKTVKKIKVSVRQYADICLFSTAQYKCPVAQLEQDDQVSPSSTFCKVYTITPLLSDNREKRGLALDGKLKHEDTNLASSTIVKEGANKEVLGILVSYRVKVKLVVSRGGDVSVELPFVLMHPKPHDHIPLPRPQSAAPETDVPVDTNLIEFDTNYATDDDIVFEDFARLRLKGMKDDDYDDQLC

CB1 receptor, sequence (P21554 whole entry): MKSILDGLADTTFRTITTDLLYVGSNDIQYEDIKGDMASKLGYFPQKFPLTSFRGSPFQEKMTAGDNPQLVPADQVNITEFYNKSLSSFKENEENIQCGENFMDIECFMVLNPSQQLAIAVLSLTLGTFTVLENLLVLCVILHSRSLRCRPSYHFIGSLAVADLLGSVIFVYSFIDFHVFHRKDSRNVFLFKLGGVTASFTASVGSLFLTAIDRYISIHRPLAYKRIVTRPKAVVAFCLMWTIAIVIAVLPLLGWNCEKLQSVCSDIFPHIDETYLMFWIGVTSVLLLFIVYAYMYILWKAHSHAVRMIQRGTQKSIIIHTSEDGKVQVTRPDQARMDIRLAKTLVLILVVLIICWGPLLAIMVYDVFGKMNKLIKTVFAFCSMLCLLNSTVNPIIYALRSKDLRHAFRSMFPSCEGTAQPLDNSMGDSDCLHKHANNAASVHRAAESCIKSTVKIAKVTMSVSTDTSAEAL
CB1 receptor, sequence (P32121 whole entry partner): as the sequence (P32121 whole entry partner) above

In the case of `CCCCn1nc(C(=O)N[C@H](C(N)=O)C(C)(C)C)c2ccccc21` [ADB‐BUTINACA], in assay [1], the EC50 was 19 nM and the “E max at CB1” value is given as 728%.
Turning to `CCCCCn1cc(C(=O)c2cccc3ccccc23)c2ccccc21` [JWH‐018], in assay [2] (interval in brackets), the “E max at CB1” value is recorded as 342 (300–385) %. Also, the EC50 amounted to 18.8 nM in assay [2] (read-out: EC 50 at CB1, βarr2 recruitment, three‐parameter logistic fit, interval in brackets) and 5.9 nM in assay [3] (read-out: EC 50 at CB2, βarr2 recruitment, three‐parameter logistic fit, interval in brackets). For the same compound, the “E max at CB2” value in assay [3] (interval in brackets) was 71.9 (66–77.9) %.
`C=CCCCn1nc(C(=O)N[C@H](C(=O)OC)C(C)(C)C)c2ccccc21` [MDMB‐4en‐PINACA]: in assay [1], the EC50 was 1.88 nM and the “E max at CB1” value is on record as 679%.
On to `COC(=O)[C@@H](NC(=O)c1n[nH]c2ccccc12)C(C)(C)C` [MDMB‐INACA], for which the EC50 in assay [2] was found to be 6810 nM; in assay [3] it was 55.2 nM. Besides, in assay [2] (interval in brackets), the “E max at CB1” value is 268 (233–305) %. For the same compound, in assay [3] (interval in brackets), the “E max at CB2” value is 150 (134–167) %.
